The term logP denotes a log measure of how a compound divides between an organic and an aqueous phase. A higher logP goes with higher lipophilicity.

Results on 2 molecules are retold here after US20240115578A1, “DRUG COMPOSITION FOR TREATING PEDIATRIC CANCERS” (CHUGAI SEIYAKU KABUSHIKI KAISHA, priority 2021, published 2024).

One data set concerns CYP2J2. The data set can be described thus: Intrinsic clearance assigned to CYP2J2. The data set is classed as in vitro ADME. The settings on record: CYP2J2 arbitrarily assigned, true enzyme not known. The source says:
(§1) The PBPK model was constructed by combining alectinib-specific physicochemical information (molecular weight, logP, pKa, etc.), and the in vitro and in vivo study results obtained so far, with the physiological information on the target population in the SimCYP (registered trademark) software (Certara, Sheffield, UK) (Table 2).

A short description of data set [1]: Physicochemical input parameters of alectinib for PBPK model.
From the text: as §1

The nature of data set [2]: Intrinsic clearance, other HLM. It is filed as in vitro ADME. The settings on record: human, human liver microsomes; PBPK input; read-out: CLint, HLMother.
From the text: as §1
On the technique in general: Microsomes from liver hold many membrane-bound enzymes, among them those of drug oxidation.

Data set [3] in a line: Absorption parameters fitted to clinical PK profiles in Japanese adult patients (JP28927). The data set is classed as in vivo.
From the text: It was then optimized using clinical trial results in Japanese adults as parameters related to the absorption process were incorporated into the model.
For the next data set, the target named is T1, CYP2C8 (Homo sapiens, UniProt P10632).
T1 sequence (P10632 1-490): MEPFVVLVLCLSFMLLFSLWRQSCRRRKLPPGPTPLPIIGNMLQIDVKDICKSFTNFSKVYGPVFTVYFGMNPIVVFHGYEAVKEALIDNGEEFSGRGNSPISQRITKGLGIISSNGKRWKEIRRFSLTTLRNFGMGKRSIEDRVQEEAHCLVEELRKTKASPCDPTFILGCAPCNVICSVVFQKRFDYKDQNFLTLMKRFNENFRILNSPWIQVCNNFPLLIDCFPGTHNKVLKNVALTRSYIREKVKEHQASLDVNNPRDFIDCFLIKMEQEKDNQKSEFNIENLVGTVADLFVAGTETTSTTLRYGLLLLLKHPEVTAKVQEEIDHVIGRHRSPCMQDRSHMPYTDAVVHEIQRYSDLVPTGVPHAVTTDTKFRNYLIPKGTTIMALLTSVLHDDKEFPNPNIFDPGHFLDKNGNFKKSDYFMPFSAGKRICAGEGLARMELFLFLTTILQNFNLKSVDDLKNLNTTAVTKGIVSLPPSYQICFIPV
Description: Competitive CYP2C8 inhibition. The data set is classed as biochemical. The settings on record: PBPK input.
From the text: as §1

Data set [4] in a line: Vss after intravenous administration in healthy subjects (Morcos et al.). The settings on record: human, in vivo, 50 μg, 475 L normalized with 74.8 kg, read-out: Actual Vss.
The test system of data set [5] is CYP3A4. The data set can be described thus: CYP3A4 induction. It is filed as in vitro ADME. The settings on record: PBPK input.
From the text: as §1

Data set [6] can be described thus: Blood-to-plasma ratio and free fractions (PBPK input). The data set is classed as in vitro ADME.
From the text: as §1

Data set [7] has as its target T2, CYP3A4 (Homo sapiens, UniProt P08684). The data set can be described thus: Intrinsic clearance by CYP3A4. The data set is classed as in vitro ADME.
From the text: For pediatric PK prediction, especially for children under the age of 2 years, the need to consider developmental changes in the expression of drug-metabolizing enzymes and the like, in addition to the changes in body size associated with growth, has been reported (C Wagner, P Zhao, Y Pan, V Hsu, J Grillo, S M Huang, V Sinha. Application of Physiologically Based Pharmacokinetic (PBPK) Modeling to Support Dose Selection: Report of an FDA Public Workshop on PBPK. CPT Pharmacometrics Syst Pharmacol. 2015 April; 4(4): 226-30).
as §1
To predict pediatric PK, the physiological information on Japanese adults was replaced with that on Japanese children. […] The inter-individual variability in blood concentration on this simulation was calculated based on Japanese demographic data (Japanese pediatric demographic data source from Japanese Ministry of Health, Labour, and Welfare. Available from: […]

Data set [8] deals with T2, CYP3A4. The data set can be described thus: Mechanism-based CYP3A4 inhibition. It is filed as biochemical. The following applies: PBPK input; read-out: Mechanism-based inhibitor CYP3A4 inhibition Ki.
From the text: as §1

Data set [9] deals with recurrent/refractory childhood cancers. The following applies: IMT with ALK fusion gene, ALCL, neuroblastoma, other malignant solid tumors; cited from earlier work.
Where [10] appears, read: fitted, multiple p.o. with standard meal, 150 mg capsule, Japanese adult patients.

T2 sequence (P08684 whole entry): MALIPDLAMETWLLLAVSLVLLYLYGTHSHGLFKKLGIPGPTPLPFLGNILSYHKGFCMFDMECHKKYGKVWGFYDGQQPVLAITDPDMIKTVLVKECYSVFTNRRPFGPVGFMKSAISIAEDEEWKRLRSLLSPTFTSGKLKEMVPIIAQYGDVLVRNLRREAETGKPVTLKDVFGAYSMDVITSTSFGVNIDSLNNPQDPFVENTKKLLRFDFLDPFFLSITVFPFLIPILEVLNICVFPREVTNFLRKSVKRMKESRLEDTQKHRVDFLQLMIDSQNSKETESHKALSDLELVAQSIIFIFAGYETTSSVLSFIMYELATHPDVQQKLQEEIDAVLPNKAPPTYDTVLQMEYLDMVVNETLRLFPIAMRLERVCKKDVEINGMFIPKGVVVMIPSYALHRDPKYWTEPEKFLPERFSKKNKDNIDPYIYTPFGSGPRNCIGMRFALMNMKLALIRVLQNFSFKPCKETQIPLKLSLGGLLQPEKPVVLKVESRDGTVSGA

With `CCc1cc2c(cc1N1CCC(N3CCOCC3)CC1)C(C)(C)c1[nH]c3cc(C#N)ccc3c1C2=O` [alectinib, 9-ethyl-6,6-dimethyl-8-(4-morpholin-4-yl-piperidin-1-yl)-11-oxo-6,11-dihydro-5H-benzo[b]carbazole-3-carbonitrile], the “CLint, CYP2J2” value in the data set with CYP2J2 is listed as 285 μL/min/pmol of μL/min/pmol of isoform. In data set [1], this molecule returned a logP of 1.96. Besides, in data set [1] (monoprotic base), the “pKa 1” value is 7.05. In data set [2], the microsomal CLint was determined as 1710 µL/min/mg. In addition, the QGUT in [3] (first-order absorption model (assumed)) amounted to 8.49 L/h. Moreover, in [3] (setting [10]), the Fa worked out at 0.48, the Lag time stood at 2.92 h and the ka stood at 0.22 h⁻¹. Further, on CYP2C8, the Ki came out at 0.147 µM. Besides, in [4], the Vd turned out to be 6.35 L/kg. Moreover, the “CYP3A4 induction Indslope” value in the data set on CYP3A4 [5] is 3.52 µM⁻¹. Moreover, the fuGut in [6] was 0.01. Also, the “Contribution of CYP3A4 to hepatic metabolic clearance” value at CYP3A4 [7] is reported as “about 40%”. Moreover, the “CLint, CYP3A4” value on CYP3A4 [7] (PBPK input) is reported as 9.98 μL/min/pmol of μL/min/pmol of isoform. Moreover, the Ki at CYP3A4 [8] came out at 8.29 µM.

Turning to `C[C@@H](Oc1cc(-c2cnn(C3CCNCC3)c2)cnc1N)c1c(Cl)ccc(F)c1Cl` [crizotinib], the “Clinical efficacy in childhood cancers” value in data set [9] is reported as “has clinical efficacy in these childhood cancers”.
